Where two headings read alike, the source gives them in different places.
Target: T1, human GR (Homo sapiens, UniProt P04150)
T1 sequence (P04150 1-777): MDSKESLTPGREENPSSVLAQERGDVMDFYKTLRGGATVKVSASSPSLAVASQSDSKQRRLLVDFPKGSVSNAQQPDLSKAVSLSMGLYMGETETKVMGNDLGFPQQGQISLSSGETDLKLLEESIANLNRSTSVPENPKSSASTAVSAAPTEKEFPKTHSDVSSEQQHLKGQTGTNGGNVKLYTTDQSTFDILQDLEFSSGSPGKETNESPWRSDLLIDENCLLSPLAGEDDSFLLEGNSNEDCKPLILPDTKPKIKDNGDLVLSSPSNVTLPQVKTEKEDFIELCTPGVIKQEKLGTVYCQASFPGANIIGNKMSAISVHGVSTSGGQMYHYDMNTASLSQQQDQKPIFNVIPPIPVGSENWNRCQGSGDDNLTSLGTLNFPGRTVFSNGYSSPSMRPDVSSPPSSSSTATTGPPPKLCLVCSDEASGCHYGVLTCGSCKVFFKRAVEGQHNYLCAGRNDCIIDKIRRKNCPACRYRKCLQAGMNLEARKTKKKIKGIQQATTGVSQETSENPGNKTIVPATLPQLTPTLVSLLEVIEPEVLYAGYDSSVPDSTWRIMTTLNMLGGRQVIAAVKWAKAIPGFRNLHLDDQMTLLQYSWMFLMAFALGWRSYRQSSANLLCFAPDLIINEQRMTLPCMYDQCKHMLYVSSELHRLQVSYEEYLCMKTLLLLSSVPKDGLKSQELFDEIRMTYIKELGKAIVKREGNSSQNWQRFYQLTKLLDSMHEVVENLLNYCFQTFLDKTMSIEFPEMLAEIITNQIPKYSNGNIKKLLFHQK
Experiment: Transrepression Assay (GITAR), TNFα-β-lactamase reporter in U937 cells
Type: cell-based
Design: U937 cells contain an endogenous glucocorticoid receptor (GR); endogenous in cells; host or cells: U937 cells stably transfected with the TNF-alpha promoter/beta-lactamase reporter
Settings: for GITAR > GRAMM % SEP: GITAR Emax minus GRAMMER Emax; for EC50: U937 cells, inflection point, read-out: Transrepression U937 Cells GITAR IP
Method in brief: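 U937 cells stably carrying a TNF-α promoter–β-lactamase reporter, with endogenous GR, are preincubated with compound 30–45 min at 37 °C, then stimulated with PMA (5 ng/ml final) and LPS (100 ng/ml final) overnight (~18 hr). β-Lactamase is read with CCF2-AM substrate; repression by 100 nM dexamethasone defines 100%.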

[1] = U-937, U937 cells, maximum activity, read-out: Transrepression U937 Cells GITAR Emax
[2] = U-937, activity repressed by 100 nM dexamethasone alone set as 100%, read-out: maximal activity in the transrepression (GITAR) assay

Compound	GITAR > GRAMM % SEP [%]	EC50 [nM]	Emax [1] [%]	Emax [2] [%]
C[C@]12Cc3cnn(-c4ccc(F)cc4)c3C=C1CC[C@@H]2CN(CC1CC1)S(=O)(=O)/C=C/c1ccccc1 [Example 13, (E)-N-(cyclopropylmethyl)-N-{[(4αR,5S)-1-(4-fluorophenyl)-4α-methyl-1,4,4α,5,6,7-hexahydrocyclopenta[f]indazol-5-yl]methyl}-2-phenylethylenesulfonamide]	7.8	305	16.1	> 5
CNC(=O)Nc1ccc(S(=O)(=O)N(CC2CC2)C[C@H]2CCC3=Cc4c(cnn4-c4ccc(F)cc4)C[C@@]32C)c(Cl)c1 [Example 14, 2-chloro-N-(cyclopropylmethyl)-N-{[(4αR,5S)-1-(4-fluorophenyl)-4α-methyl-1,4,4α,5,6,7-hexahydrocyclopenta[f]indazol-5-yl]methyl}-4-{[(methylamino)carbonyl]amino}-benzenesulfonamide]	34.1	553	59.3	> 5
C[C@]12Cc3cnn(-c4ccc(F)cc4)c3C=C1CC[C@@H]2CN(CCC#N)S(=O)(=O)c1ccccc1F [Example 16, N-(2-cyanoethyl)-2-fluoro-N-{[(4αR,5S)-1-(4-fluorophenyl)-4α-methyl-1,4,4α,5,6,7-hexahydrocyclopenta[f]indazol-5-yl]methyl}benzenesulfonamide]		268	84.5	> 5
C[C@]12Cc3cnn(-c4ccc(F)cc4)c3C=C1CC[C@@H]2CN(CCO)S(=O)(=O)c1ccccc1F [Example 17, 2-fluoro-N-{[(4αR,5S)-1-(4-fluorophenyl)-4α-methyl-1,4,4α,5,6,7-hexahydrocyclopenta[f]indazol-5-yl]methyl}-N-(2-hydroxyethyl)benzenesulfonamide]		347	82.1	> 5
COC(=O)c1ccccc1S(=O)(=O)N(CC1CC1)C[C@H]1CCC2=Cc3c(cnn3-c3ccc(F)cc3)C[C@@]21C [Example 18, methyl 2-[((cyclopropylmethyl){[(4αR,5S)-1-(4-fluorophenyl)-4α-methyl-1,4,4α,5,6,7-hexahydrocyclopenta[f]indazol-5 yl]methyl}amino)sulfonyl]benzoate]	15.3	415	35.3	> 5
C[C@]12Cc3cnn(-c4ccc(F)cc4)c3C=C1CC[C@@H]2CN(CC1CC1)S(=O)(=O)Cc1ccccc1 [Example 21, N-(cyclopropylmethyl)-N-{[(4αR,5S)-1-(4-fluorophenyl)-4α-methyl-1,4,4α,5,6,7-hexahydrocyclopenta[f]indazol-5-yl]methyl}-1-phenylmethanesulfonamide]		365	58.7	> 5
C[C@]12Cc3cnn(-c4ccc(F)cc4)c3C=C1CC[C@@H]2CN(CC#N)S(=O)(=O)c1ccc(F)c(F)c1 [Example 25, N-(cyanomethyl)-3,4-difluoro-N-{[(4αR,5S)-1-(4-fluorophenyl)-4α-methyl-1,4,4α,5,6,7-hexahydrocyclopenta[f]indazol-5-yl]methyl}benzenesulfonamide]	13.0	222	89.4	> 5
C[C@]12Cc3cnn(-c4ccc(F)cc4)c3C=C1CC[C@@H]2CN(CC#N)S(=O)(=O)Cc1cccc(C(F)(F)F)c1 [Example 30, N-(cyanomethyl)-N-{[(4αR,5S)-1-(4-fluorophenyl}-4α-methyl-1,4,4α,5,6,7-hexahydrocyclopenta[f]indazol-5-yl]methyl}-1-[3-(trifluoromethyl)phenyl]methanesulfonamide]	16.4	417	19.9	> 5

The remaining lines, values ahead:

GITAR > GRAMM % SEP [%]	EC50 [nM]	Emax [1] [%]	Emax [2] [%]	Compound
31.4	258	59	> 5	C[C@]12Cc3cnn(-c4ccc(F)cc4)c3C=C1CC[C@@H]2CN(CC1CC1)S(=O)(=O)c1ccc(F)c(Cl)c1 [Example 15, 3-chloro-N-(cyclopropylmethyl)-4-fluoro-N-{[(4αR,5S)-1-(4-fluorophenyl)-4α-methyl-1,4,4α,5,6,7-hexahydrocyclopenta[f]indazol-5-yl]methyl}benzenesulfonamide]
49.1	1720	69.8	> 5	C[C@]12Cc3cnn(-c4ccc(F)cc4)c3C=C1CC[C@@H]2CN(CCO)S(=O)(=O)c1ccc(F)c(Cl)c1 [Example 19, 3-chloro-4-fluoro-N-{[(4αR,5S)-1-(4-fluorophenyl)-4α-methyl-1,4,4α,5,6,7-hexahydrocyclopenta[f]indazol-5-yl]methyl}-N-(2-hydroxyethyl)benzenesulfonamide]
1.6	373	69.7	> 5	C[C@]12Cc3cnn(-c4ccc(F)cc4)c3C=C1CC[C@@H]2CN(CC#N)S(=O)(=O)c1ccc(F)c(Cl)c1 [Example 20, 3-chloro-N-(cyanomethyl)-4-fluoro-N-{[(4αR,5S)-1-(4-fluorophenyl)-4α-methyl-1,4,4α,5,6,7-hexahydrocyclopenta[f]indazol-5-yl]methyl}benzenesulfonamide]
31.3	2250	34	> 5	Cc1oncc1S(=O)(=O)N(CC#N)C[C@H]1CCC2=Cc3c(cnn3-c3ccc(F)cc3)C[C@@]21C [Example 23, N-(cyanomethyl)-N-{[(4αR,5S)-1-(4-fluorophenyl)-4α-methyl-1,4,4α,5,6,7-hexahydrocyclopenta[f]indazol-5-yl]methyl}-5-methylisoxazole-4-sulfonamide]
27.2	565	37.7	> 5	C[C@]12Cc3cnn(-c4ccc(F)cc4)c3C=C1CC[C@@H]2CN(CC#N)S(=O)(=O)c1cc(Cl)c(Cl)s1 [Example 24, 4,5-dichloro-N-(cyanomethyl)-N-{[(4αR,5S)-1-(4-fluorophenyl)-4α-methyl-1,4,4α,5,6,7-hexahydrocyclopenta[f]indazol-5-yl]methyl}thiophene-2-sulfonamide]
10.2	25	16	> 5	C[C@]12Cc3cnn(-c4ccc(F)cc4)c3C=C1CC[C@@H]2CN(CC#N)S(=O)(=O)c1cccc(Cl)c1Cl [Example 26, 2,3-dichloro-N-(cyanomethyl)-N-{[(4αR,5S)-1-(4-fluorophenyl)-4α-methyl-1,4,4α,5,6,7-hexahydrocyclopenta[f]indazol-5-yl]methyl}benzenesulfonamide]
10.0	638	13	> 5	C[C@]12Cc3cnn(-c4ccc(F)cc4)c3C=C1CC[C@@H]2CN(CC#N)S(=O)(=O)c1ccc(Cl)c(C(F)(F)F)c1 [Example 27, 4-chloro-N-(cyanomethyl)-N-{[(4αR,5S)-1-(4-fluorophenyl)-4α-methyl-1,4,4α,5,6,7-hexahydrocyclopenta[f]indazol-5-yl]methyl}-3-(trifluoromethyl)benzenesulfonamide]
34.8	662	78.8	> 5	C[C@]12Cc3cnn(-c4ccc(F)cc4)c3C=C1CC[C@@H]2CN(CC#N)S(=O)(=O)c1ccc(C#N)cc1 [Example 28, 4-cyano-N-(cyanomethyl)-N-{[(4αR,5S)-1-(4-fluorophenyl)-4α-methyl-1,4,4α,5,6,7-hexahydrocyclopenta[f]indazol-5-yl]methyl}benzenesulfonamide]
26.2	838	30.9	> 5	Cc1cc(S(=O)(=O)N(CC#N)C[C@H]2CCC3=Cc4c(cnn4-c4ccc(F)cc4)C[C@@]32C)c(C)cc1Cl [Example 29, 4-chloro-N-(cyanomethyl)-N-{[(4αR,5S)-1-(4-fluorophenyl)-4α-methyl-1,4,4α,5,6,7-hexahydrocyclopenta[f]indazol-5-yl]methyl}-2,5-dimethylbenzenesulfonamide]
34.0	679	54.8	> 5	Cc1ccc(S(=O)(=O)N(CC#N)C[C@H]2CCC3=Cc4c(cnn4-c4ccc(F)cc4)C[C@@]32C)s1 [Example 31, N-(cyanomethyl)-N-{[(4αR,5S)-1-(4-fluorophenyl}-4α-methyl-1,4,4α,5,6,7-hexahydrocyclopenta[f]indazol-5-yl]methyl}-5-methylthiophene-2-sulfonamide]

Reference: patent publication US8299048B2, “Hexahydrocyclopentyl[f]indazole sulfonamides and derivatives thereof as selective glucocorticoid receptor modulators” (Merck Sharp & Dohme Corp., priority 2008, dated 2012)
